Assay results published in patent US20260216238A1, “TETRATHIOMOLYBDIC ACID FOR USE IN TREATING COPPER METABOLISM-ASSOCIATED DISEASES OR DISORDERS (WILSON DISEASE)” (Alexion Pharmaceuticals, Inc., priority 2023, published 2026).

System: patients with Wilson disease (WD)
Assay: UWDRS Part III total score, functional subscale and individual items (neurological examination)
Type: in vivo, human
Details: for UWDRS Part III change from baseline, LSM Diff (TTM vs SoC) / UWDRS Part III change from baseline, Mean / UWDRS Part III change from baseline, Median / UWDRS Part III change from baseline, LSM: patients symptomatic at baseline; for UWDRS Part III change from baseline, LSM: MMRM; for UWDRS Part III (0-175) change from baseline, LSM / UWDRS Part III (0-175) change from baseline, Mean / UWDRS Part III functional subscale (0-10) change from baseline, LSM / UWDRS Part III functional subscale (0-10) change from baseline, Mean / UWDRS Part III-arising from chair (0-4) change from baseline, LSM / UWDRS Part III-arising from chair (0-4) change from baseline, Mean / UWDRS Part III-gait (0-4) change from baseline, LSM / UWDRS Part III-gait (0-4) change from baseline, Mean / UWDRS Part III-handwriting (0-4) change from baseline, LSM / UWDRS Part III-handwriting (0-4) change from baseline, Mean / UWDRS Part III-speech (0-4) change from baseline, LSM / UWDRS Part III-speech (0-4) change from baseline, Mean: Study 301 TTM long term set
Protocol: The UWDRS scoring system was developed specifically for the motor and movement disorders associated with chronic copper neurotoxicity in WD. Some individual items/subscales of the UWDRS Part III (arising from a chair, gait, handwriting, and speech) in addition to the UWDRS Parts I, II, and III overall, were assessed to further define the range of burdensome signs and symptoms of WD, so as to further understand the assessment of treatment effects on patients with WD. The UWDRS scores for consciousness (Part I) and abnormal neurologic examination findings (Part III) will be determined by a trained neurologist rater who is blinded to study treatment randomization. These scores were used to provide a rigorous dataset for evaluating changes from baseline.
Unified Wilson Disease Rating Scale (Parts I, II, and III): The UWDRS is a clinical rating scale designed to evaluate the neurological manifestations of WD that generally can be divided into 3 movement disorder syndromes: dystonic, ataxic, and Parkinsonian syndrome. The UWDRS comprises 3 parts: UWDRS Part I (level of consciousness, item 1), UWDRS Part II (a patient-reported review of daily activity items [disability], items 2 to 11), and UWDRS Part III (a detailed neurological examination, items 12 to 34).
The UWDRS Part I and Part III were assessed by a neurologist who is blinded to the treatment randomization, while UWDRS Part II may be reported to a non-blinded member of the study team by the patient, family member, or caregiver. The UWDRS has not been formally evaluated in adolescents. However, the components of Part I (level of consciousness), Part II (patient or caregiver-reported disability) and Part III (neurologic examination findings) were not fundamentally different between adults and adolescents. Patients aged 12 years and older were expected to be able to comply with UWDRS assessments.
Pooled results from all such participants will be integrated together into one timeline to allow analyses of changes in UWDRS, long-term copper control, and long-term safety laboratory data.
Endpoints (directly measured non-ceruloplasmin-bound copper [dNCC], UWDRS III (rater blinded) total and individual item scores, Clinical Global Impression-Improvement [CGI-I]) were evaluated at baseline (BL) and Week 48 (W48). Normalization (score decrease to 0), improvement (≥1 point decrease), stability (no change), or worsening (≥1 point increase) of total and individual UWDRS III item scores were evaluated at W48.

[1] = Week 48, Cohort 1, Total (Studies 301, 201, 205), n=127

bis-choline tetrathiomolybdate [TTM]
UWDRS-III, Change from Baseline, Median [1]: −1.00
UWDRS-III, Change from Baseline, Min [1]: −48.0,
UWDRS-III, Change from Baseline, Q1 [1]: −6.00,
UWDRS-III, Change from Baseline, Q3 [1]: 0.00
UWDRS-III, Change from Baseline, LSM Diff (TTM vs. SoC) (Week 48, Cohort 1, TTM Total vs SoC Study 301, P-value 0.1295): −1.97
UWDRS-III, Change from Baseline, LSM (Week 48, Cohort 1, TTM Total, SoC Study 301): −3.62
UWDRS Part III change from baseline, LSM Diff (TTM vs SoC) (Week 48, Cohort 1): −0.79
UWDRS Part III change from baseline, Mean (Week 48, Cohort 1): −2.86
UWDRS Part III change from baseline, Median (Week 48, Cohort 1): −2.00
UWDRS Part III change from baseline, LSM (Week 48, Cohort 1): −2.68
UWDRS Part III change from baseline, LSM Diff (TTM vs SoC) (Week 48, Cohort 2): 0.05
UWDRS Part III change from baseline, Mean (Week 48, Cohort 2): −3.10
UWDRS Part III change from baseline, Median (Week 48, Cohort 2): −3.00
UWDRS Part III change from baseline, LSM (Week 48, Cohort 2): 1.43
UWDRS Part III change from baseline, LSM Diff (TTM vs SoC) (Week 48, Overall): −0.33
UWDRS Part III change from baseline, Mean (Week 48, Overall): 2.91
UWDRS Part III change from baseline, Median (Week 48, Overall): −2.00
UWDRS Part III change from baseline, LSM (Week 48, Overall): −1.54
UWDRS Part III (0-175) change from baseline, LSM (Week 48): −2.47
UWDRS Part III (0-175) change from baseline, Mean (Week 48): −2.32
UWDRS Part III functional subscale (0-10) change from baseline, LSM (Week 48): −0.230
UWDRS Part III functional subscale (0-10) change from baseline, Mean (Week 48): −0.235
UWDRS Part III-arising from chair (0-4) change from baseline, LSM (Week 48): 0.0
UWDRS Part III-arising from chair (0-4) change from baseline, Mean (Week 48): 0.0
UWDRS Part III-gait (0-4) change from baseline, LSM (Week 48): −0.26
UWDRS Part III-gait (0-4) change from baseline, Mean (Week 48): −0.18
UWDRS Part III-handwriting (0-4) change from baseline, LSM (Week 48): −0.1
UWDRS Part III-handwriting (0-4) change from baseline, Mean (Week 48): −0.2
UWDRS Part III-speech (0-4) change from baseline, LSM (Week 48): −0.1
UWDRS Part III-speech (0-4) change from baseline, Mean (Week 48): −0.1
UWDRS Part III (0-175) change from baseline, LSM (Week 72): −3.47
UWDRS Part III (0-175) change from baseline, Mean (Week 72): −3.27
UWDRS Part III functional subscale (0-10) change from baseline, LSM (Week 72): −0.253
UWDRS Part III functional subscale (0-10) change from baseline, Mean (Week 72): −0.290
UWDRS Part III-arising from chair (0-4) change from baseline, LSM (Week 72): −0.1
UWDRS Part III-arising from chair (0-4) change from baseline, Mean (Week 72): −0.1
UWDRS Part III-gait (0-4) change from baseline, LSM (Week 72): −0.15
UWDRS Part III-gait (0-4) change from baseline, Mean (Week 72): −0.12
UWDRS Part III-handwriting (0-4) change from baseline, LSM (Week 72): −0.2
UWDRS Part III-handwriting (0-4) change from baseline, Mean (Week 72): −0.2
UWDRS Part III-speech (0-4) change from baseline, LSM (Week 72): −0.1
UWDRS Part III-speech (0-4) change from baseline, Mean (Week 72): −0.1
UWDRS Part III (0-175) change from baseline, LSM (Week 96): −4.77
UWDRS Part III (0-175) change from baseline, Mean (Week 96): −4.09
UWDRS Part III functional subscale (0-10) change from baseline, LSM (Week 96): −0.386
UWDRS Part III functional subscale (0-10) change from baseline, Mean (Week 96): −0.503
UWDRS Part III-arising from chair (0-4) change from baseline, LSM (Week 96): −0.1
UWDRS Part III-arising from chair (0-4) change from baseline, Mean (Week 96): −0.2
UWDRS Part III-gait (0-4) change from baseline, LSM (Week 96): −0.12
UWDRS Part III-gait (0-4) change from baseline, Mean (Week 96): −0.11
UWDRS Part III-handwriting (0-4) change from baseline, LSM (Week 96): −0.3
UWDRS Part III-handwriting (0-4) change from baseline, Mean (Week 96): −0.4
UWDRS Part III-speech (0-4) change from baseline, LSM (Week 96): −0.2
UWDRS Part III-speech (0-4) change from baseline, Mean (Week 96): −0.2
UWDRS Part III (0-175) change from baseline, LSM (Week 120): −5.27
UWDRS Part III (0-175) change from baseline, Mean (Week 120): −4.08
UWDRS Part III functional subscale (0-10) change from baseline, LSM (Week 120): −0.392
UWDRS Part III functional subscale (0-10) change from baseline, Mean (Week 120): −0.410
UWDRS Part III-arising from chair (0-4) change from baseline, LSM (Week 120): −0.1
UWDRS Part III-arising from chair (0-4) change from baseline, Mean (Week 120): −0.2
UWDRS Part III-gait (0-4) change from baseline, LSM (Week 120): 0.04
UWDRS Part III-gait (0-4) change from baseline, Mean (Week 120): 0.26
UWDRS Part III-handwriting (0-4) change from baseline, LSM (Week 120): −0.3
UWDRS Part III-handwriting (0-4) change from baseline, Mean (Week 120): −0.5
UWDRS Part III-speech (0-4) change from baseline, LSM (Week 120): −0.2
UWDRS Part III-speech (0-4) change from baseline, Mean (Week 120): −0.1
UWDRS Part III (0-175) change from baseline, LSM (Week 144): −6.38
UWDRS Part III (0-175) change from baseline, Mean (Week 144): −5.99
UWDRS Part III functional subscale (0-10) change from baseline, LSM (Week 144): −0.489
UWDRS Part III functional subscale (0-10) change from baseline, Mean (Week 144): −0.573
UWDRS Part III-arising from chair (0-4) change from baseline, LSM (Week 144): −0.2
UWDRS Part III-arising from chair (0-4) change from baseline, Mean (Week 144): −0.3
UWDRS Part III-gait (0-4) change from baseline, LSM (Week 144): −0.25
UWDRS Part III-gait (0-4) change from baseline, Mean (Week 144): 0.00
UWDRS Part III-handwriting (0-4) change from baseline, LSM (Week 144): −0.3
